From patent US7041683B2 (Wyeth, priority 2001, dated 2006)
Counter-ions that a name gives are not always drawn. Like-named read-outs stand apart in the source and are kept apart here.

Key:
[1] = biological target: T1, cloned human 5-HT1A receptors (Homo sapiens, UniProt P08908); experiment: 35S-GTPγS binding assay, antagonist activity at 5-HT1A receptors; assay type: biochemical; design: 5-HT1A Function Imax (maximum inhibitory effect): unit not given here
T1 construct: expressed in transfected cells
T1 sequence (P08908 1-422): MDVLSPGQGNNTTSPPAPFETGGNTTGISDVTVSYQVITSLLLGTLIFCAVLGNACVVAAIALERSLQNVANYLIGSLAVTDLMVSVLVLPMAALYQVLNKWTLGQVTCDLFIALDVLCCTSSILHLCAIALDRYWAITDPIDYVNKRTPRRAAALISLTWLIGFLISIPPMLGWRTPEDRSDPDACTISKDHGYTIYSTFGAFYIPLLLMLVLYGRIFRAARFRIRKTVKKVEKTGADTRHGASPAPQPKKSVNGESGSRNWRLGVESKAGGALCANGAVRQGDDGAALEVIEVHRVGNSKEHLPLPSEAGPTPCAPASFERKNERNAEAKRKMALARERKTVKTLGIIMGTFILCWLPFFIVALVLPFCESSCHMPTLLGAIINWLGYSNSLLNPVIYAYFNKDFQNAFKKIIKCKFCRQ
Experimental: Antagonist activity at 5-HT1A receptors was established by using a ^35S-GTPγS binding assay similar to that used by Lazareno and Birdsall (Br. J. Pharmacol. 109: 1120, 1993), in which the test compound's ability to affect the binding of ^35S-GTPγS to membranes containing cloned human 5-HT1A receptors was determined. Agonists produce an increase in binding whereas antagonists produce no increase but rather reverse the effects of the standard agonist 8-OHDPAT. The test compound's maximum inhibitory effect is represented as the Imax, while its potency is defined by the IC50.

serotonin transporter = biological target: T2, serotonin transporter (Rattus norvegicus, UniProt P31652); experiment: 3H-paroxetine displacement from male rat frontal cortical membranes (serotonin transporter affinity); assay type: binding
T2 construct: displace ^3H-paroxetine from male rat frontal cortical membranes; from tissue; host or cells: male rat frontal cortex membranes
T2 sequence (P31652 whole entry): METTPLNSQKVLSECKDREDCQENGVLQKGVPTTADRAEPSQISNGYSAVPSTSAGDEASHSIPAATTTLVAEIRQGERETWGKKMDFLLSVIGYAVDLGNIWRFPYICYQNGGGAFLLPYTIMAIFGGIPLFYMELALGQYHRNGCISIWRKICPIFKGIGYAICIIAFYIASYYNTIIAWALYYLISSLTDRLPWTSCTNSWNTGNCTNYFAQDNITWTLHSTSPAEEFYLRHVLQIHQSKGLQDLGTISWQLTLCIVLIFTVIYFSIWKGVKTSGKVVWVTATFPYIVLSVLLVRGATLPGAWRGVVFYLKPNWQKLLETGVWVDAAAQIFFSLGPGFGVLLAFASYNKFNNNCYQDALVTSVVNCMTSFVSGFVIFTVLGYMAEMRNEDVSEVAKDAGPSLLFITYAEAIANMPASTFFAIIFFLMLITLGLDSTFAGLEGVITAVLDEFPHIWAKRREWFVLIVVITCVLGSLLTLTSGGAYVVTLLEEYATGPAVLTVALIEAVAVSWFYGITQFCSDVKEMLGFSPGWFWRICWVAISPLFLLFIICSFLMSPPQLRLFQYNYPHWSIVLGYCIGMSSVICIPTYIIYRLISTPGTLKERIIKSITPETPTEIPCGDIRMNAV

human 5-HT1A receptors = biological target: T3, human 5-HT1A receptors (Homo sapiens, UniProt P08908); experiment: [3H] 8-OHDPAT displacement from 5-HT1A receptor in stably transfected CHO cells; assay type: binding
T3 construct: expressed in transfected cells; host or cells: CHO cells
T3 sequence (P08908 1-422): T1 sequence (P08908 1-422)
Description: High affinity for the serotonin 5-HT1A receptor was established by testing the claimed compound's ability to displace [^3H] 8-OHDPAT (dipropylaminotetralin) from the 5-HT1A serotonin receptor following a modification of the procedure of Hall et al., J. Neurochem. 44, 1685 (1985) which utilizes CHO cells stably transfected with human 5-HT1A receptors.

[2] = 35S-GTPγS binding, reversal of the effects of the standard agonist 8-OHDPAT
[3] = 35S-GTPγS binding, reversal of the effects of the standard agonist 8-OHDPAT, read-out: 5-HT1A Function IC50

Row | Compound | melting point | 5-HT1A Function Imax (maximum inhibitory effect) [1, 2] | IC50 [1, 3] [nM] | Ki (serotonin transporter) [nM] | Ki (human 5-HT1A receptors) [nM] | IC50 [1] [nM] | Ki (human 5-HT1A receptors; displacement of [3H] 8-OHDPAT, CHO cells stably transfected with human 5-HT1A receptors, read-out: 5-HT1A Receptor Affinity KI) [nM]
1 | Nc1ccc2c(c1)OCC(CN1CC=C(c3c[nH]c4ccccc34)CC1)O2 (single isomer, unassigned) [Example 3, 3-[4-(1H-Indol-3-yl)-3,6-dihydro-2H-pyridin-1-ylmethyl]-2,3-dihydro-benzo[1,4]dioxin-7-ylamine] | 204 to 206 °C |  |  |  |  |  | 
2 | COc1cccc2c1OC(CN1CC=C(c3c[nH]c4ccccc34)CC1)CO2 (centres unmarked) [Example 5, 3-[1-(8-Methoxy-2,3-dihydro-benzo[1,4]dioxin-2-ylmethyl)-1,2,3,6-tetrahydro-pyridin-4-yl]-1H-indole] |  | (89.3) | 57.3 | 0.17 | 2.85 |  | 
3 | COc1cccc2c1O[C@@H](CN1CC=C(c3c[nH]c4ncccc34)CC1)CO2 [Example 8, 3-[1-(8-Methoxy-2,3-dihydro-benzo[1,4]dioxin-2-ylmethyl)-1,2,3,6-tetrahydro-pyridin-4-yl]-1H-pyrrole[2,3-b]pyridine] | 207 to 210 °C | (94.0) | 26 | 39 | 4.3 |  | 
4 | COc1cccc2c1OC(CN1CC=C(c3c[nH]c4cc(F)ccc34)CC1)CO2 (centres unmarked) [Example 9, 6-Fluoro-3-[1-(8-methoxy-2,3-dihydro-1,4-benzodioxin-2-ylmethyl)-1,2,3,6-tetrahydro-pyridin-4-yl]-1H-indole] | 184 to 185 °C | (80.0) | 272 | 0.6 | 4.88 |  | 
5 | NC(=O)c1cccc2c1OC(CN1CC=C(c3c[nH]c4ccc(F)cc34)CC1)CO2 (centres unmarked) [Example 11, 3-[4-(5-Fluoro-1H-indol-3-yl)-3,6-dihydro-2H-pyridin-1-ylmethyl]-2,3-dihydro-benzo[1,4]dioxine-5-carboxylic Acid Amide] | 195 to 197 °C | (60.0) | 736 | 3.13 | 70.6 |  | 
6 | COc1cccc2c1OC(CN1CC=C(c3c[nH]c4ccc(C#N)cc34)CC1)CO2 (centres unmarked) [Example 7, 3-[1-(8-Methoxy-2,3-dihydro-benzo[1,4]dioxin-2-ylmethyl)-1,2,3,6-tetrahydro-pyridin-4-yl]-1H-indole-5-carbonitrile] |  | (100) | 82.5 | 1.04 | 7.95 |  | 
7 | Fc1ccc2[nH]cc(C3=CCN(CC4COc5ccccc5O4)CC3)c2c1 (centres unmarked) [Example 2, 5-Fluoro-3-[4-[1,2,3,6-tetrahydro-1-[2-(2,3-dihydro[1,4]benzodioxinyl)]methyl]pyridinyl]indole] |  |  |  | 16 | 68.3 |  | 
8 | Nc1ccc2c(c1)O[C@@H](CN1CC=C(c3c[nH]c4ccccc34)CC1)CO2 (single isomer, unassigned) [Example 3] |  | (96.0) |  | 1.16 | 31 | 232 | 
9 | COc1ccc2[nH]cc(C3=CCN(CC4COc5ccccc5O4)CC3)c2c1 (centres unmarked) (as salt: oxalate) [Example 1, 5-Methoxy-3-[4-[1,2,3,6-tetrahydro-1-[2-(2,3-dihydro[1,4]benzodioxinyl)]methyl]pyridinyl]indole] | 120 °C (dec.) |  |  |  |  |  | 
10 | COc1ccc2[nH]cc(C3=CCN(CC4COc5ccccc5O4)CC3)c2c1 (centres unmarked) [Example 1, 5-Methoxy-3-[4-[1,2,3,6-tetrahydro-1-[2-(2,3-dihydro[1,4]benzodioxinyl)]methyl]pyridinyl]indole] |  |  |  |  | 27.2 |  | 
11 | Nc1ccc2c(c1)OCC(CN1CC=C(c3c[nH]c4ccc(F)cc34)CC1)O2 (centres unmarked) [Example 6, 2-[4-(5-Fluoro-1H-indol-3-yl)-3,6-dihydro-2H-pyridin-1-ylmethyl]-2,3-dihydro-benzo[1,4]dioxin-6-ylamine] | 172 to 174 °C | (96.7) | 411 | 0.34 | 46.7 |  | 
12 | Fc1ccc2[nH]cc(C3=CCN(CC4COc5ccccc5O4)CC3)c2c1 (centres unmarked) (as salt: oxalate) [Example 2, 5-Fluoro-3-[4-[1,2,3,6-tetrahydro-1-[2-(2,3-dihydro[1,4]benzodioxinyl)]methyl]pyridinyl]indole] | 145 °C (dec.) |  |  |  |  |  | 
13 | NC(=O)c1cccc2c1OC(CN1CC=C(c3c[nH]c4ccccc34)CC1)CO2 (centres unmarked) [Example 10, 3-[4-(1H-Indol-3-yl)-3,6-dihydro-2H-pyridin-1-ylmethyl]-2,3-dihydro-benzo[1,4]dioxine-5-carboxylic Acid Amide] | 175 to 178 °C | (61.0) | 1280 | 4.96 | 64.6 |  | 
14 | COc1cccc2c1OC(CN1CC=C(c3c[nH]c4ccccc34)CC1)CO2 (centres unmarked) (hydrate or solvate) [Example 5, 3-[1-(8-Methoxy-2,3-dihydro-benzo[1,4]dioxin-2-ylmethyl)-1,2,3,6-tetrahydro-pyridin-4-yl]-1H-indole] | 203 to 205 °C |  |  |  |  |  | 
15 | COc1ccc2c(c1)OC(CN1CC=C(c3c[nH]c4ccccc34)CC1)CO2 (centres unmarked) [Example 13, 3-(1-{[7-Methoxy-2,3-dihydro-1,4-benzodioxin-2-yl]methyl}-1,2,3,6-tetrahydropyridin-4-yl)-1H-indole] | 166 to 168 °C | (100) | 522 | 40 | 17.3 |  | 
16 | Fc1cccc2c1OC(CN1CC=C(c3c[nH]c4ccccc34)CC1)CO2 (centres unmarked) [Example 12, 3-(1-{[8-Fluoro-2,3-dihydro-1,4-benzodioxin-2-yl]methyl}-1,2,3,6-tetrahydropyridin-4-yl)-1H-indole] | 174 to 177 °C | (76.0) | 521 | 49 | 35.5 |  | 
17 | COc1cccc2c1OC(CN1CC=C(c3c[nH]c4ccc(C#N)cc34)CC1)CO2 (centres unmarked) (as salt: hydrochloride) (hydrate or solvate) [Example 7, 3-[1-(8-Methoxy-2,3-dihydro-benzo[1,4]dioxin-2-ylmethyl)-1,2,3,6-tetrahydro-pyridin-4-yl]-1H-indole-5-carbonitrile] | 235 to 238 °C |  |  |  |  |  | 
18 | COc1cccc2c1O[C@@H](CN1CC=C(c3c[nH]c4ccc(F)cc34)CC1)CO2 (as salt: oxalate) [Example 14, 5-Fluoro-3-[1-(8-methoxy-2,3-dihydro-benzo[1,4]dioxin-2-ylmethyl)-1,2,3,6-tetrahydro-pyradin-4-yl]-1H-indole] | 154 to 156 °C |  |  |  |  |  | 
19 | Nc1ccc2c(c1)OCC(CN1CC=C(c3c[nH]c4ccccc34)CC1)O2 (centres unmarked) [Example 4, 2-[4-(1H-Indol-3-yl)-3,6-dihydro-2H-pyridin-1-ylmethyl]-2,3-dihydro-benzo[1,4]dioxin-6-ylamine] | 199 to 200 °C | (90.0) | 240 | 2.03 |  |  | 132
20 | COc1cccc2c1O[C@@H](CN1CC=C(c3c[nH]c4ccc(F)cc34)CC1)CO2 [Example 14, 5-Fluoro-3-[1-(8-methoxy-2,3-dihydro-benzo[1,4]dioxin-2-ylmethyl)-1,2,3,6-tetrahydro-pyradin-4-yl]-1H-indole] |  | (100) | 70 | 1.79 | 8.57 |  | 
